Measurements reported in patent publication US20070254894A1, “Novel small molecules with selective cytotoxicity against human microvascular endothelial cell proliferation” (priority 2006, published 2007).
Structures can show the parent of a compound that is named as a salt. Where two headings read alike, the source gives them in different places.

How the values were obtained:
[1] = system: HMVEC cells stimulated with b-FGF; assay: b-FGF driven HMVEC proliferation screen; type: cell-based
Procedure: (§1) HMVEC cells were plated on collagen-coated plates at 2500 cells/well for 24 hours. Various concentrations of test compounds were then added to duplicate plates. […] Anti-FGF antibody (final concentration of 5 μg/mL) was added to four control wells as a standard inhibitor. At the same time the compounds were added, a T-zero plate was generated (Alamar blue was added to a plate and read after three hours). The plates with the compounds were incubated for one hour at 37° C., 5% carbon dioxide. At this point, b-FGF was added (final concentration of 2.5 ng/mL). Tween-20 (10 μL) was added to four additional control wells to represent total death and the plates were returned to the carbon dioxide incubator for 6 days.

in vitro = conditions: human, primary human dermal fibroblasts, D. Fibroblast LC50, 6 days, Alamar blue
Procedure: (§2) In parallel with the VEGF and FGF screens, a normal cell toxicity assay was run. Primary Human Dermal Fibroblasts (Clonetics) were plated at 5000 cells/well. After 24 hours various concentrations of test compounds, were added in duplicate plates and 10% Tween-20 was added to four control wells to represent total death. At the same time a T-zero plate was generated. The plates were returned to the carbon dioxide incubator and on day 6 Alamar blue was added and the plates read after 3 hours.
(§3) Using a T-zero plate allows the observation of compounds that cause the cells to become static as well as inhibit growth.

[2] = system: HMVEC cells stimulated with VEGF 165; assay: VEGF driven HMVEC proliferation screen; type: cell-based
Procedure: as §1
The assay was run identically using VEGF in place of b-FGF. The final concentration of VEGF 165, in this mode, was 10 ng/mL. The control inhibitor was anti-VEGF antibody (final concentration of […]). All other conditions were the same.

[3] = system: Primary Human Dermal Fibroblasts; assay: in vitro; conditions: read-out: D. Fibroblast LC50; 6 days, Alamar blue
Procedure: as §2, §3

[4] = Homo sapiens, HMVEC, 144 h, b-FGF 2.5 ng/mL, 6 days, Alamar blue, read-out: b-FGF LC50
[5] = Homo sapiens, HMVEC, 144 h, VEGF 165 10 ng/mL, 6 days, Alamar blue, read-out: VEGF LC50
[6] = b-FGF 2.5 ng/mL, 6 days, Alamar blue, read-out: b-FGF LC50
[7] = VEGF 165 10 ng/mL, 6 days, Alamar blue, read-out: VEGF LC50

Compound | CC50 [1, 4] [nM] | CC50 at 6 days (in vitro) [nM] | CC50 [2, 5] [nM] | CC50 [1, 6] [nM] | CC50 [2, 7] [nM] | CC50 [3] [nM] | CC50 [1] [nM] | CC50 [2] [nM]
O=C(Nc1cccc2ccnnc12)c1ccccn1 [Compound 76] | 3300 | > 10000 | 3500 | – | – | – | – | –
COc1cc(NC(=O)c2cc(N3CCN(C)CC3)ccn2)c2ncccc2c1 [Compound 105] | – | 9600 | – | 120 | 91 | – | – | –
O=C(Nc1cccc2cccnc12)[C@@H]1CCCN1 [Compound 57, (S)-pyrrolidine-2-carboxylic acid quinolin-8-ylamide] | 1200 | > 10000 | 1300 | – | – | – | – | –
O=C(Nc1cc(Cl)c(Cl)c2cccnc12)c1ccccn1 [Compound 97] | 250 | > 10000 | 250 | – | – | – | – | –
CC(C)CN1CCC[C@H]1C(=O)Nc1cccc2cccnc12 [Compound 63] | 4400 | > 10000 | 5500 | – | – | – | – | –
CN1CCCN(c2ccnc(C(=O)Nc3cccc4cccnc34)c2)CC1 [Compound 102] | 31 | > 10000 | 24 | – | – | – | – | –
Cc1cc(NC(=O)[C@@H]2CCCN2C)c2ncccc2c1 [Compound 67] | 350 | > 10000 | 230 | – | – | – | – | –
CCN(C)c1ccccc1NC(=O)c1ccccn1 [Compound 106] | 1200 | > 10000 | 1500 | – | – | – | – | –
CC(C)N1CCC[C@H]1C(=O)Nc1cccc2cccnc12 [Compound 64] | 5200 | > 10000 | 6400 | – | – | – | – | –
Cc1cccnc1C(=O)Nc1ccc(N2CCOCC2)c2cccnc12 [Compound 50] | 74 | > 10000 | 110 | – | – | – | – | –
O=C(Nc1cccc2cccnc12)c1ncccc1OCc1ccccc1 [Compound 47, 3-benzyloxypyridine-2-carboxylic acid quinolin-8-ylamide] | 400 | > 10000 | 280 | – | – | – | – | –
O=C(Nc1cccc2cccnc12)c1cc(Cl)ccn1 [Compound 22, 4-chloropyridine-2-carboxylic acid quinolin-8-ylamide] | 130 | > 10000 | 100 | – | – | – | – | –
CN1CCCC[C@@H]1C(=O)Nc1cccc2cccnc12 [Compound 70] | 2800 | > 10000 | 3900 | – | – | – | – | –
O=C(Nc1cccc2nccnc12)c1ccccn1 [Compound 94] | 290 | > 10000 | 280 | – | – | – | – | –
O=C(Nc1cccc2cccnc12)c1cc(Sc2ccccc2)ccn1 [Compound 31, 4-phenylsulfanylpyridine-2-carboxylic acid quinolin-8-ylamide] | 150 | > 10000 | 170 | – | – | – | – | –
COc1cc(NC(=O)[C@@H]2CCCN2C)c2ncccc2c1 [Compound 66] | 240 | > 10000 | 240 | – | – | – | – | –
O=C(Nc1cccc2cccnc12)c1ccccn1 [Compound 93, pyridine-2-carboxylic acid quinolin-8-ylamide hydrochloride salt] | 71 | > 10000 | 72 | – | – | – | – | –
Cc1cc(NC(=O)c2ccccn2)c2ncccc2c1C [Compound 95] | 170 | > 10000 | 150 | – | – | – | – | –
O=S(=O)(Nc1cccc2nccnc12)c1ccccn1 [Compound 78] | 4200 | > 10000 | 2400 | – | – | – | – | –
CN1CCCC[C@H]1C(=O)Nc1cccc2cccnc12 [Compound 69] | 2600 | > 10000 | 3100 | – | – | – | – | –
COc1cc(NC(=O)c2cc(N3CCOCC3)ccn2)c2ncccc2c1 [Compound 53] | 28 | > 10000 | 30 | – | – | – | – | –
CN1CCC[C@H]1C(=O)Nc1ccc(N2CCOCC2)c2cccnc12 [Compound 68] | 820 | > 10000 | 430 | – | – | – | – | –
CCCN1CCC[C@H]1C(=O)Nc1cccc2cccnc12 [Compound 62] | 1200 | > 10000 | 1300 | – | – | – | – | –

Compound | CC50 [1, 4] [nM] | CC50 at 6 days (in vitro) [nM] | CC50 [2, 5] [nM] | CC50 [1, 6] [nM] | CC50 [2, 7] [nM] | CC50 [3] [nM] | CC50 [1] [nM] | CC50 [2] [nM]
CN(C)CC(=O)Nc1cccc2cccnc12 [Compound 55, 2-dimethylamino-N-quinolin-8-yl-acetamide] | 590 | > 10000 | 630 | – | – | – | – | –
CN1CCC[C@H]1C(=O)Nc1cccc2cccnc12 [Compound 107] | – | > 10000 | – | 410 | 460 | – | – | –
O=C(Nc1cccc2cccnc12)[C@@H]1CCCN1CC1CC1 [Compound 61] | 1500 | > 10000 | 1500 | – | – | – | – | –
O=C(Nc1cccc2cccnc12)c1cc(Oc2ccccc2)ccn1 [Compound 32, 4-phenoxypyridine-2-carboxylic acid quinolin-8-ylamide] | 1800 | > 10000 | 1100 | – | – | – | – | –
COc1cc(NC(=O)c2cc(Cl)ccn2)c2ncccc2c1 [Compound 52] | 85 | > 10000 | 93 | – | – | – | – | –
O=S(=O)(Nc1cc(Cl)c(Cl)c2cccnc12)c1ccccn1 [Compound 109] | 340 | > 10000 | 450 | – | – | – | – | –
O=C(Nc1cc(-c2ccccc2)cc2cccnc12)c1ccccn1 [Compound 10] | – | – | – | 380 | 260 | > 10000 | – | –
Cc1ccc(NS(=O)(=O)c2ccccn2)c2ncccc12 [Compound 74] | – | – | – | – | – | > 10000 | 110 | 120
C[C@@H](C(=O)Nc1cccc2cccnc12)N(C)C [Compound 60] | 520 | > 10000 | 730 | – | – | – | – | –
CN1CCN(c2ccc(NS(=O)(=O)c3ccccn3)c3ncccc23)CC1 [Compound 110] | 1300 | > 10000 | 1500 | – | – | – | – | –
O=C(Nc1cccc2cccnc12)c1cc(N2CCC(N3CCCC3)CC2)ccn1 [Compound 103] | 38 | 4300 | 33 | – | – | – | – | –
O=C(Nc1ccc(Oc2ccccc2)c2cccnc12)c1ccccn1 [Compound 12] | – | – | – | 1000 | 1000 | > 10000 | – | –
O=C(CN1CCCC1)Nc1cccc2cccnc12 [Compound 56] | 1400 | > 10000 | 1300 | – | – | – | – | –
CN1CCC[C@@H]1C(=O)Nc1cccc2cccnc12 [Compound 65] | 290 | > 10000 | 230 | – | – | – | – | –
Cc1cccnc1C(=O)Nc1cccc2cccnc12 [Compound 24] | – | – | – | – | – | > 10000 | 150 | 140
CN(C)c1c(NC(=O)c2ccccn2)ccc(Cl)c1Cl [Compound 91] | – | – | – | – | – | > 10000 | 2400 | 3500
CN(C)CCN(C)c1ccc(NC(=O)c2ccccn2)c2ncccc12 [Compound 21] | – | – | – | 2400 | 3700 | > 10000 | – | –
Cc1ccc(NC(=O)c2ccccn2)c2ncccc12 [Compound 96] | 100 | > 10000 | 140 | – | – | – | – | –
CN(C)[C@@H](Cc1ccccc1)C(=O)Nc1cccc2cccnc12 [Compound 59] | 1100 | > 10000 | 1200 | – | – | – | – | –
Cc1cc(NC(=O)c2ccccn2)c2ncccc2c1Br [Compound 16, pyridine-2-carboxylic acid (5-bromo-6-methyl-quinolin-8-yl)-amide] | 380 | > 10000 | 380 | – | – | – | – | –
Cc1cc(NS(=O)(=O)c2ccccn2)c2ncccc2c1C [Compound 75, pyridine-2-sulfonic acid (5,6-dimethyl-quinolin-8-yl)-amide] | 160 | > 10000 | 190 | – | – | – | – | –
O=C(Nc1ccc(N2CCOCC2)c2cccnc12)c1cc(Cl)ccn1 [Compound 51] | 230 | > 10000 | 220 | – | – | – | – | –
CN1CCN(c2ccnc(C(=O)Nc3cccc4cccnc34)c2)CC1 [Compound 101] | – | – | – | 14 | 15 | > 10000 | – | –
